{"source": "patent US7754696B2", "about": "(Pharmaceutical Solutions, Inc., priority 2001, dated 2010)", "key": {"foul mites": {"tested_on": "foul mites", "experiment": "Treatment of a poultry flock via drinking water, mites", "format": "in vivo", "conditions": "10000 head flock, 5 percent concentration mixture in water, administered over 12 hours, 180 ug per kg", "experimental": "(§1) 400 cc of a 5 percent concentration mixture was added to 5 gallons of water to form a stock solution that was administered over 12 hours at a dose of 180 ug per kg."}, "round worms [1]": {"tested_on": "round worms", "experiment": "Treatment of a poultry flock via drinking water, round worms", "format": "in vivo", "conditions": "10000 head flock, 5 percent concentration mixture in water, administered over 12 hours, 180 ug per kg", "experimental": "as §1"}, "round worms [2]": {"tested_on": "round worms", "experiment": "Treatment of swine via drinking water, fecal examinations pre and post treatment", "format": "in vivo", "conditions": "1000 100-pound pigs, 5 percent solution in 10 gallons of water stock solution", "experimental": "This is 20 mg per 100 pounds or 200 ug per pound."}, "[3]": {"conditions": "room temperature; cited from earlier work"}, "[4]": {"conditions": "cited from earlier work"}, "[5]": {"conditions": "cited from earlier work", "remark": "listed apart in the source"}}, "data": [{"molecule": "CC[C@H](C)[C@H]1O[C@]2(CC[C@@H]1C)C[C@@H]1C[C@@H](C/C=C(\\C)C(O[C@H]3C[C@H](OC)[C@@H](O[C@H]4C[C@H](OC)[C@@H](O)[C@H](C)O4)[C@H](C)O3)[C@@H](C)/C=C/C=C3\\CO[C@@H]4[C@H](O)C(C)=C[C@@H](C(=O)O1)[C@]34O)O2", "note": "(stereo partly drawn) [Ivermectin, 22,23 dihydroavermectin Bla]", "values": [{"measurement": "elimination of mites from the birds", "setting": "foul mites", "value": 100, "unit": "%"}, {"measurement": "elimination of worms from the birds", "setting": "round worms [1]", "value": 100, "unit": "%"}, {"measurement": "reduction in round worms based on fecal examinations", "setting": "round worms [2]", "value": 98, "unit": "%"}, {"measurement": "solubility in water", "setting": "[3]", "value": "about 0.005 mg per ml"}, {"measurement": "apparent volume of distribution", "setting": "[4]; adults", "value": "about 47 liters"}, {"measurement": "systemic clearance", "setting": "[4]; adults", "value": "about 1.2 liters/hour"}, {"measurement": "terminal half-life", "setting": "[4]; adults", "value": "about 27 hours"}, {"measurement": "time to peak levels in plasma", "setting": "[4]; human beings, oral administration", "value": "≤ 4", "unit": "h"}, {"measurement": "bound to plasma proteins", "setting": "[5]", "value": "about 93%"}]}]}
